Data published in article PMC9011347, “Small-Molecule Inhibitors Targeting Lipolysis in Human Adipocytes” (Journal of the American Chemical Society, 2022).

System: HepG2 cells
Experiment: Untargeted lipidomic analysis (UHPLC-MS, OPLS-DA)
Assay type: cell-based, human
Settings: 40 μM, 3 h, versus DMSO
Experimental: Figure 2 Development and characterization of the human ATGL inhibitor NG-497. (a) Structure and IC50 values of human ATGL inhibitors. (b) Dose-dependent inhibition of human ATGL by respective inhibitors. (c) ATGL activity was determined at the indicated substrate concentrations in the absence and presence of NG-497 (0.5 μM). Ki was determined by nonlinear regression analysis using GraphPad Prism. Lineweaver–Burk analysis of ATGL inhibition is shown in the inset. (d) Toxicity of NG-497 in HepG2 cells was determined after 24 h incubation at indicated concentrations. Cisplatin and DMSO were used as positive and negative controls, respectively. Cytotoxicity was determined using the Roche LDH Kit and calculated as relative LDH release compared to fully lysed cells. (e) Stability of NG-497 was analyzed via ultrahigh-performance liquid chromatography–mass spectrometry (UHPLC-MS) after incubation in human serum for 0 or 3 h at 37 °C. Atglistatin and a chemically related unstable compound were used as controls. […] NG-497 concentrations/well were determined at the indicated time points using UHPLC-MS. […] Statistical significance was determined via t test (*p < 0.05; **p < 0.01; ***p < 0.001) or ANOVA followed by Bonferroni post hoc test (^###p < 0.001). […] The detected 297 lipid species of both groups were analyzed with supervised multivariate analysis OPLS-DA and are shown as a loading plot. […]

CCOc1ccc(-c2cc(OC)cc(C(=O)OC(C)C)n2)cc1 [NG-497]
lipidomic changes (OPLS-DA top 25 contributing lipid species): 20 of the top 25 hits were due to an increase of TAG species, while three DAG species were decreased
